Assay results: US20260263459A1, “PHTHALAZINONE GSPT1 PROTEIN DEGRADING AGENT AND USE THEREOF” (CHINA PHARMACEUTICAL UNIVERSITY, priority 2023, published 2026)

Columns and labels:
KG-1 cells = assay: Antiproliferative activity against KG-1 cells (CCK8); format: cell-based; details: Homo sapiens, 72 h incubation, CCK8 method
Description: KG-1 cells in the logarithmic growth phase were diluted in a culture medium (RPMI+10% FBS) and plated onto 96-well plates at 5000 cells/well, and the plates were incubated in an incubator at 37° C. with 5% CO2 for 24 h. 10 mM stock solutions of the test compounds of the present disclosure in DMSO were prepared and diluted with the culture medium to set 9 concentration gradients. 3 replicate wells were set for each concentration. After compound addition, the plates were incubated in an incubator at 37° C. with 5% CO2 for 72 h. The cell proliferation was assessed using the CCK8 method. The cell growth inhibition IC50 values of the compounds were determined using an enzyme labeling method. The IC50 values were calculated using GraphPad Prism 7 software.
The antiproliferative activity of the compounds against KG-1 cells is shown in Table 2, where A represents IC50≤30 nM, B represents 30<IC50≤300 nM, and C represents IC50>300 nM.

GSPT1 protein = biological target: T1, GSPT1 protein (Homo sapiens, UniProt P15170+Q96SW2); assay: Degradation of GSPT1 in KG-1 cells (Western blot); format: cell-based; details: compound concentration 200 nM, 4 h incubation
T1 construct: Whole cell lysates were prepared; endogenous in cells; host or cells: KG-1 cells
Description: KG-1 cells were grown in an IMDM culture medium (containing 20% FBS). After centrifugation and counting, the cell concentration was adjusted. The cells were plated onto 6-well plates at 10^6 cells/well, with 1350 μL per well. 150 μL of DMSO and the test compounds of the present disclosure (compound concentration: 200 nM) were added. The plates were incubated in an incubator at 37° C. with 5% CO2 for 4 h. The cells were centrifuged, and the culture medium was discarded. PBS was added to wash the cells and then discarded. Whole cell lysates were prepared using a protease inhibitor cocktail (100×, Fude Biological), a protein phosphatase inhibitor cocktail (100×, Fude Biological), Super Nuclease (Beyotime), and a high-intensity RIPA lysis buffer (Thermo Fisher) and placed on ice for 30 min. After centrifugation, the cell debris precipitates were discarded, and the whole cell lysate supernatants were collected and transferred to new centrifuge tubes. After a BCA protein assay, samples were prepared using a 5× loading buffer (Thermo Fisher). The samples were subjected to protein electrophoresis separation in a 4-20% precast gel (SDS-PAGE gel), transferred to a PVDF membrane, blocked with 5% NFDM/TBST at room temperature for 1 h, incubated overnight with primary antibodies at 4° C., and incubated with a secondary antibody at room temperature for 2 h the next day. Signals were detected using a MINICHEMITM imaging system.
• Anti-GSPT1: Abcam ab234433 • Anti-beta actin: Fude Biological FD0060
• Anti-rabbit peroxidase-linked secondary antibody: Fude Biological FDG007
The degradation effects of the compounds on GSPT1 protein are shown in Table 1, where A represents a GSPT1 protein degradation percentage of no less than 70%, B represents a degradation percentage of less than 70% but no less than 30%, and C represents a degradation percentage of less than 30%.

T1 sequence (P15170 whole entry): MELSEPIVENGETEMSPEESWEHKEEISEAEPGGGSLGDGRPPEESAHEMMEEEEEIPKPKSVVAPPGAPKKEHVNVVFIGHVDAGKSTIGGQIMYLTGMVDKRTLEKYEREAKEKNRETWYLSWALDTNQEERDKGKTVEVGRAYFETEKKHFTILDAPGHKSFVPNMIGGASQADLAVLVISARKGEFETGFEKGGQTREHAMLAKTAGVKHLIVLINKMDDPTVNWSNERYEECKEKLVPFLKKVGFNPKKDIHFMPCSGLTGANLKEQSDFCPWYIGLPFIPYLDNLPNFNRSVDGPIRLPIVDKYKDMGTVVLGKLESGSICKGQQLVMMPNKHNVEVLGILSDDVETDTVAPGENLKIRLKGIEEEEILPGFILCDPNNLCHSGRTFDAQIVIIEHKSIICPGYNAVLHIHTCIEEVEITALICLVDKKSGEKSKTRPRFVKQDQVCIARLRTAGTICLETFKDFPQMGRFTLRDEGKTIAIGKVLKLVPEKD
T1 sequence (Q96SW2 whole entry): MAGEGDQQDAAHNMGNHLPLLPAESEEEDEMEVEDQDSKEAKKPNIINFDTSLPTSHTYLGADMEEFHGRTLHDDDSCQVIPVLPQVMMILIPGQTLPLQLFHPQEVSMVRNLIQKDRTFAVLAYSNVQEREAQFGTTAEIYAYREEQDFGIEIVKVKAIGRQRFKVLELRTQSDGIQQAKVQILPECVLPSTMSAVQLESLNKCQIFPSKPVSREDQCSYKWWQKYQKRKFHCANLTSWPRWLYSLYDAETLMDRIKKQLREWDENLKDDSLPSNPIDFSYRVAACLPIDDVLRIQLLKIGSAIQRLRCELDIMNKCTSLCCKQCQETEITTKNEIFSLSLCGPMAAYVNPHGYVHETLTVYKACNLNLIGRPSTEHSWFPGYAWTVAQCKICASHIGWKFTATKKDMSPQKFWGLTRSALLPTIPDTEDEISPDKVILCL
T1 sequence (Q16531 whole entry partner): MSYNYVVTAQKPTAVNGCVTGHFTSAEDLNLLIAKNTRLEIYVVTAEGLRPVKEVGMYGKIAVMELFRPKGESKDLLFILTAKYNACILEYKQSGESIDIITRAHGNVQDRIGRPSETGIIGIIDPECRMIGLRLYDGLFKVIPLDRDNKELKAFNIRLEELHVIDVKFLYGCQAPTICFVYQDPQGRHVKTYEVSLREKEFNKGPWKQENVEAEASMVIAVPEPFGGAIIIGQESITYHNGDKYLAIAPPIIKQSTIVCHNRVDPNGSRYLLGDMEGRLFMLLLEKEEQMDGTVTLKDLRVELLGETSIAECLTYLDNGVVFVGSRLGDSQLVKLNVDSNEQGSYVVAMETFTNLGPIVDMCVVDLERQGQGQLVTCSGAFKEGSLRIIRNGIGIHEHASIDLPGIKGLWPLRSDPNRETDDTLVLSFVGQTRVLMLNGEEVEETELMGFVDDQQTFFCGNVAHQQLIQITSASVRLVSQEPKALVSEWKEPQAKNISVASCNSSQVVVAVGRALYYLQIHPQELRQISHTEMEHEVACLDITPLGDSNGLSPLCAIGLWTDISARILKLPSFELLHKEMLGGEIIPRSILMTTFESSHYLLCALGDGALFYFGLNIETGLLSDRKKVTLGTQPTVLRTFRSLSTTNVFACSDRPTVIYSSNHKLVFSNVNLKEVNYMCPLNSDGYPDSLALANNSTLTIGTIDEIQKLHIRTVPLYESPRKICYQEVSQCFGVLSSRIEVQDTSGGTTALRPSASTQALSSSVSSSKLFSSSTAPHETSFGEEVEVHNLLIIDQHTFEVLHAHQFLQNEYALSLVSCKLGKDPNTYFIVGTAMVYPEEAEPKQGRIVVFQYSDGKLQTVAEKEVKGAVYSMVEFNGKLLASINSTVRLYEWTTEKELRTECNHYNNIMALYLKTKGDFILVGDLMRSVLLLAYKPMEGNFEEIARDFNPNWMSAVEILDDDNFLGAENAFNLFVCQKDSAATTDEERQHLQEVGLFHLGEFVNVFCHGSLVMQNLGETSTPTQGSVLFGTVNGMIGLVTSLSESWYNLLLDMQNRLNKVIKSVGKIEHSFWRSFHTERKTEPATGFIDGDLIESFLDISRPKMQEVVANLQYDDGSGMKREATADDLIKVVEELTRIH

Structure (SMILES) | IC50 (KG-1 cells) [nM] | inhibition at 0.2 µM (GSPT1 protein) [%]
O=C1CCC(n2ncc3cc(NC(=O)C4=Cc5ccccc5OC4)ccc3c2=O)C(=O)N1 (centres unmarked) [Compound T-25, N-(2-(2,6-Dioxopiperidin-3-yl)-1-oxo-1,2-dihydrophthalazin-6-yl)-2H-chromene-3-carboxamide] | 30 to 300 | < 30
O=C1CCC(n2ncc3cc(NC(=O)C4=Cc5cc(F)ccc5OC4)ccc3c2=O)C(=O)N1 (centres unmarked) [Compound T-26, N-(2-(2,6-Dioxopiperidin-3-yl)-1-oxo-1,2-dihydrophthalazin-6-yl)-6-fluoro-2H-chromene-3-carboxamide] | 30 to 300 | < 30
O=C1CCC(n2ncc3cc(NC(=O)C4=Cc5cc(OC(F)(F)F)ccc5OC4)ccc3c2=O)C(=O)N1 (centres unmarked) [Compound T-27, N-(2-(2,6-Dioxopiperidin-3-yl)-1-oxo-1,2-dihydrophthalazin-6-yl)-6-(trifluoromethoxy)-2H-chromene-3-carboxamide] | 30 to 300 | < 30
O=C1CCC(n2ncc3cc(NC(=O)C4=Cc5cccc(OC(F)(F)F)c5OC4)ccc3c2=O)C(=O)N1 (centres unmarked) [Compound T-28, N-(2-(2,6-Dioxopiperidin-3-yl)-1-oxo-1,2-dihydrophthalazin-6-yl)-8-(trifluoromethoxy)-2H-chromene-3-carboxamide] | 30 to 300 | 30 to 70
